Assays:
[1] = test system: damaged dentin of beagle dog's teeth; test: Dentin regeneration in dentin damage model; format: in vivo; details: 10 ug per tooth, 3 weeks after application, vs control group, FIG. 4
Description: Three beagle dogs (12-16 kg; […]) were anesthetized by inhalation of Geloran, intravenously injected with Zoletil (5 mg/kg) and Xylazine (0.2-0.5 mg/kg), and then treated with Lidocaine (Lidocaine 2% with 1:80,000 epinephrine). After damaging the dentin of the premolars and molar teeth in the mandible of the beagle dog using a dental bur, 10 ug of SEQ ID NO: 1 peptide of group 1 was treated per tooth. After 6 weeks, a beagle dog was sacrificed by administering an excessive amount (90-120 mg/kg) of pentobarbital. The tooth of the beagle dog was extracted, fixed with 10% formalin, calcium was removed by adding 5% formic acid, molded, and embedded in paraffin, and then a tissue section with a thickness of 5 μm were obtained, a obtained tissue section was stained with hematoxylin and eosin, and then analyzed using by an optical microscope equipped with a digital camera (LEICA ICC50 camera, Germany).
FIG. 4 is the result of histological evaluation 3 weeks after application of 10 ug of the novel peptide (SEQ ID NO: 1) after damaging the dentine of beagle dog's teeth in order to confirm that the novel peptide induces physiological dentin regeneration in a animal model of damaged dentin.

DSPP gene = test: DSPP mRNA level by real-time PCR in human dental pulp cells; format: cell-based; details: peptide 10 ug/ml, compared to untreated control
Description: Human pulp tissue cells were isolated from wisdom teeth of 10 adults (18-22 years old) at Seoul National University Dental Hospital. Specifically, all experiments were performed with the patient's consent after approval from the hospital's Institutional Review Board, and wisdom teeth are cut according to a method of Jung H S et al (J Mol Histol. (2011)), exposing the pulp and isolating the pulp with forceps. The isolated pulp was minced on both sides, placed in a 60 mm dish, covered with a cover slip, and then cultured in Dulbecco's Modified Eagle medium. It is known that human dental pulp cells can differentiate into odontoblasts, osteoblasts, cementoblasts and periodontal ligament cells under various conditions (Tissue Eng Part A. 2014 April; 20(7-8): 1342-51).
(§1) Total RNA of human dental pulp cells and mesenchymal stem cells was isolated using a TRIzol reagent. cDNA was synthesized using 2 μg of total RNA, 1 μl of reverse transcriptase, and 0.5 μg of oligo (dT). The synthesized cDNA was used for real-time polymerase chain reaction. The real-time polymerase chain reaction was performed in ABI PRISM 7500 sequence detection system (Applied Biosystems) using SYBR GREEN PCR Master Mix (Takara, Japan). The real-time polymerase chain reaction was performed at 94° C., 1 min; 95° C., 15 sec-60° C., 34 sec was performed under the condition of repeating 40 cycles. An analysis of the results was evaluated using a comparative cycle threshold (CT) method, and primer base sequences are listed in Table 9.
The effect of each group of peptides on DSPP mRNA expression was confirmed by real-time PCR (Table 10).

DMP1 gene = test: DMP1 mRNA level by real-time PCR in human-derived mesenchymal stem cells; format: cell-based; details: compared to untreated control
Description: (§2) It was cultured at 37° C. in humid air containing 5% CO2 and used for the experiment. Human mesenchymal stem cells (hBMSCs) were purchased from Lonza (LONZA, Switzerland) and used. hBMSCs were cultured in a-MEM (Invitrogen) medium supplemented with 10% heat-inactivated bovine serum.
as §1
(§3) BSP and DMP1 genes are used as markers for differentiation of osteoblasts and cementoblasts, and are known as important genes for calcification of a bone and cementum. The effects of each group of peptides on BSP and DMP1 mRNA expression were confirmed by a real-time PCR (Tables 11 and 12).

DSP = test: Western blot of DSP protein in human dental pulp cells; format: cell-based; details: 1, 10, and 50 ug, FIG. 3
Description: (§4) FIG. 3 is a result of confirming expressions of DSP and BSP proteins by Western blot after treating human dental pulp cells with the novel peptide (SEQ ID NO: 1) in a concentration-dependent manner (1, 10, and 50 ug) to confirm the effect of novel peptides on expressions of marker proteins for differentiation of odontoblasts, osteoblasts and cementoblasts.

BSP gene = test: BSP mRNA level by real-time PCR in human-derived mesenchymal stem cells; format: cell-based; details: compared to untreated control
Description: as §2, §1, §3

BSP = test: Western blot of BSP protein in human dental pulp cells; format: cell-based; details: 1, 10, and 50 ug, FIG. 3
Description: as §4

[2] = test system: human dental pulp cells (hDPCs) transplanted into the subcutaneous tissue of mice with impaired immune systems; test: In vivo transplantation of hDPCs with HA/TCP and histological analysis
Description: Human dental pulp cells (hDPCs) were isolated and used for in vivo transplantation experiments. hDPCs (2×10^6 cells) were mixed with 100 mg of hydroxy apatite/tricalcium phosphate (HA/TCP) ceramic powder (Zimmer, USA) alone or along with peptides (10 μg) or 0.5% fibrin gel, and then transplanted into mice (NIH-bg-nu-xid; Harlan Laboratories, Indianapolis, IN) with damaged immune systems for 6 and 12 weeks. Thereafter, samples were harvested, fixed in 4% paraformaldehyde, decalcified in 10% EDTA (pH 7.4), embedded in paraffin, and stained with hematoxylin-eosin (H-E) (Vector Labs).

Sequence | physiological dentin regeneration, histological evaluation [1] | mRNA level of DSPP gene, Average (DSPP gene) [fold] | mRNA level of DMP1 gene, DMP1 gene expression, Average (DMP1 gene) [fold] | expression of DSP protein (marker for differentiation of odontoblasts) (DSP) | mRNA level of BSP gene, BSP gene expression, Average (BSP gene) [fold] | expression of BSP protein (marker for differentiation of osteoblasts and cementoblasts) (BSP) | periodontal ligament formation, hematoxylin-eosin histology ([2]; 10 ug peptide with hDPCs, 6 weeks after transplantation, vs hDPCs-only control, FIG. 6) | proportion of hard tissue formation ([2]; 10 ug peptide with hDPCs, 12 weeks after transplantation, vs hDPCs-only control, FIG. 5) | hard tissue (bone/cementum-like tissue) formation, hematoxylin-eosin histology ([2]; hDPCs with HA/TCP, 12 weeks after transplantation, FIG. 5)
KYKAKKKNYK [SEQ ID NO: 1] | physiological dentin was formed in the lower part the damaged dentine | 9.028 | 11.401 | increased in a concentration-dependent manner | 2.892 | increased in a concentration-dependent manner | periodontal ligament fiber bundle (black triangle) were formed | increased | more similar hard tissue formation as the BMP-2 treated group compared to the control group
KYARKRKNYK [SEQ ID NO: 51] |  | 2.572 | 5.272 |  | 1.899 |  |  |  | 
KYARKKKNYK [SEQ ID NO: 49] |  | 1.798 | 6.789 |  | 1.971 |  |  |  | 
KYRARKRNYK [SEQ ID NO: 24] |  | 2.021 | 9.333 |  | 2.276 |  |  |  | 
KYKAKRRSYK [SEQ ID NO: 13] |  | 2.535 | 9.237 |  | 2.637 |  |  |  | 
KYRARRRNYK [SEQ ID NO: 23] |  | 1.915 | 9.105 |  | 2.037 |  |  |  | 
KYKAKKRNYK [SEQ ID NO: 2] |  | 7.361 | 10.361 |  | 2.713 |  |  |  | 
KYRAKKRNYK [SEQ ID NO: 18] |  | 2.061 | 9.161 |  | 2.316 |  |  |  | 
KYKARKRSYK [SEQ ID NO: 16] |  | 2.906 | 10.014 |  | 2.307 |  |  |  | 
KYRAKKRSYK [SEQ ID NO: 26] |  | 1.811 | 8.991 |  | 2.081 |  |  |  | 
KYRARRKNYK [SEQ ID NO: 22] |  | 2.005 | 7.997 |  | 1.893 |  |  |  | 
KYARRKKSYK [SEQ ID NO: 60] |  | 2.195 | 5.078 |  | 1.991 |  |  |  | 
KYRARKKNYK [SEQ ID NO: 20] |  | 1.702 | 8.537 |  | 2.91 |  |  |  | 
KYAKKRKNYK [SEQ ID NO: 35] |  | 1.572 | 7.527 |  | 2.372 |  |  |  | 
KYRAKRRSYK [SEQ ID NO: 29] |  | 2.125 | 9.525 |  | 1.978 |  |  |  | 
KYRARRRSYK [SEQ ID NO: 31] |  | 1.620 | 9.100 |  | 1.798 |  |  |  | 
KYAKRRRNYK [SEQ ID NO: 39] |  | 2.015 | 6.989 |  | 2.293 |  |  |  | 
KYRAKRKSYK [SEQ ID NO: 27] |  | 1.620 | 8.537 |  | 2.195 |  |  |  | 
KYKARKKNYK [SEQ ID NO: 4] |  | 9.702 | 9.720 |  | 2.307 |  |  |  | 
KYRAKKKNYK [SEQ ID NO: 17] |  | 2.192 | 9.400 |  | 2.392 |  |  |  | 
KYAKKRRSYK [SEQ ID NO: 45] |  | 2.125 | 7.309 |  | 1.878 |  |  |  | 
KYAKRRKNYK [SEQ ID NO: 38] |  | 1.705 | 7.777 |  | 2.507 |  |  |  | 
KYARKKRNYK [SEQ ID NO: 50] |  | 1.661 | 6.109 |  | 1.901 |  |  |  | 
KYRARKKSYK [SEQ ID NO: 28] |  | 2.311 | 9.198 |  | 2.084 |  |  |  | 
KYARRKRNYK [SEQ ID NO: 56] |  | 2.021 | 5.798 |  | 2.016 |  |  |  | 
